Results as given in article PMC10698726 (Molecular Pharmaceutics, 2023).
Read-outs that look alike come from different tables or passages of the source.

Legend:
OCT3 = target: T1, OCT3 (Homo sapiens, UniProt O75751); assay: Inhibition of model substrate uptake in OCT3-overexpressing HEK293 cells; format: cell-based; details: 5 min
T1 construct: expressed in transfected cells; host or cells: HEK293
T1 sequence (O75751 1-556): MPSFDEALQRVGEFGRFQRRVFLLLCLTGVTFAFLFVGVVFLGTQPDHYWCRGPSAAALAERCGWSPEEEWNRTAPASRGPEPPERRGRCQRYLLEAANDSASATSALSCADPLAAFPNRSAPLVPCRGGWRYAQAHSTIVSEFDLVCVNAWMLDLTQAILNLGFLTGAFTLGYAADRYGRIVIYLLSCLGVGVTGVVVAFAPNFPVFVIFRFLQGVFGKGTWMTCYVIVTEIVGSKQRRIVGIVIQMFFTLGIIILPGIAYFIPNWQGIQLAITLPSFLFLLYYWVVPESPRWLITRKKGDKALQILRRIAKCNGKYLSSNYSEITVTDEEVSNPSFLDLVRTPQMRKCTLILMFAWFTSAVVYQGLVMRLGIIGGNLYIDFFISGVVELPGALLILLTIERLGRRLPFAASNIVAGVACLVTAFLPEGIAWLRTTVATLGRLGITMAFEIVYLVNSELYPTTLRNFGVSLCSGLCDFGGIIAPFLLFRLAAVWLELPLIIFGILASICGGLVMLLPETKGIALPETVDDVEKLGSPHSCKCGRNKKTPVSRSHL
Description: (§1) All experiments were carried out in transporter-overexpressing HEK293 cells. OCT1-, OCT2-, NET-, DAT-, and SERT-overexpressing cells as well as the empty-vector transfected control cell line were generated as described earlier,[26]−[28] whereas the OCT3-overexpressing HEK293 cells were generous gift of from Drs. Koepsell and Gorbulev (University of Würzburg, Germany). All cells were cultivated in Dulbecco’s modified Eagle’s medium (DMEM) supplemented with 10% (v/v) FCS, penicillin (100 U/mL), and streptomycin (100 μg/mL) and kept in culture for no longer than 30 passages.
(§2) As for the transport experiments, 300,000 HEK293 cells were plated in poly-D-lysine-coated 24-well plates 2 days ahead of the experiment. On every plate, two wells of empty vector (EV)-transfected cells were used as a control to account for the passive influx of the model substrate, and two wells of transporter-overexpressing cells were used to determine the noninhibited uptake of the model substrate. Cells were initially washed once with 37 °C HBSS+ and then incubated with 2 μM model substrate (0.2 μM for MPP^+ uptake by MATs) with and without 20 μM inhibitor for 5 min. For concentration-dependent inhibition experiments, the cells were incubated with increasing inhibitor concentrations. The incubation was terminated by aspiration of the buffer before cells were washed twice with ice-cold HBSS+ and lysed in 80% acetonitrile. Cell lysates were transferred into a black 96-well plate for the fluorescence measurement of ASP^+ or used for sample preparation for LC–MS/MS analysis. […] Fluorescence quantification was performed in technical duplicates.
(§3) Transporter-mediated net uptake was calculated as the difference between uptake in transporter-overexpressing cells and that in the empty-vector-transfected control. […] Vmax is the maximum transport velocity, while Km is defined as the substance concentration that is required to reach half of vmax. The ratio of vmax over Km is termed intrinsic clearance Clint. For inhibition experiments, the transport activity was calculated by using the following equation [drawing 1]
(§4) SubstrateEV refers to the passive uptake of model substrates into the control cells and substratenoninhibited is the uptake in transporter-overexpressing cells without the presence of any inhibitor. The percent inhibition values are then calculated as described in the following [drawing 2]
(§5) For concentration inhibition experiments, the transporter activity was plotted against the log10 of inhibitor concentrations, and the data were fitted by the following equation to determine IC50 values [drawing 3]
(§6) Y refers to the transporter activity, whereas Ymax is the maximum and Ymin is the minimal transporter activity. X is the log10 of inhibitor concentrations, IC50 is the half-maximal inhibitory concentration, and hill slope is the slope factor.

OCT1 = target: T2, OCT1 (Homo sapiens, UniProt O15245); assay: Inhibition of model substrate uptake in OCT1-overexpressing HEK293 cells; format: cell-based; parameters: expressed in transfected cells; host or cells: HEK293; details: OCT1, 20 μM inhibitor, 5 min; for inhibition at 5 min, 20 μM: human, OCT1-overexpressing HEK293 cells
T2 sequence (O15245 1-554): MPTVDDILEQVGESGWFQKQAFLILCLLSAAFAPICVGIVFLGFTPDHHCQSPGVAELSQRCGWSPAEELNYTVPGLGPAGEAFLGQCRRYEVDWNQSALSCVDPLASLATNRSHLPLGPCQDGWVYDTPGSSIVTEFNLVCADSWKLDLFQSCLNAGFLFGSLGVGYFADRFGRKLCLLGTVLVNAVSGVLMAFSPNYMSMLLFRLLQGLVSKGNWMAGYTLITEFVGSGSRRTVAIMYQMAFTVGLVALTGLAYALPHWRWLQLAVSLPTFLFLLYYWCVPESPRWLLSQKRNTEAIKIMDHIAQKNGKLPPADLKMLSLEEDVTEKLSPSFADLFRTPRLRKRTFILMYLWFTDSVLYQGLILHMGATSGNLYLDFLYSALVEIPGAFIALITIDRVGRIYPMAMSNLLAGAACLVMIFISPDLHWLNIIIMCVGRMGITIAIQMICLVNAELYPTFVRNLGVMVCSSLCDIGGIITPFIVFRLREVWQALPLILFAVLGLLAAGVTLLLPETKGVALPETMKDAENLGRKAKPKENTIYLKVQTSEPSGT
Description: Koepsell and Gorbulev (University of Würzburg, Germany).
Fluorescence quantification was performed in technical duplicates.

OCT2 = target: T3, OCT2 (Homo sapiens, UniProt O15244); assay: Inhibition of model substrate uptake in OCT2-overexpressing HEK293 cells; details: OCT2, 20 μM inhibitor, 5 min; for inhibition at 5 min, 20 μM: human, OCT2-overexpressing HEK293 cells
T3 sequence (O15244 1-555): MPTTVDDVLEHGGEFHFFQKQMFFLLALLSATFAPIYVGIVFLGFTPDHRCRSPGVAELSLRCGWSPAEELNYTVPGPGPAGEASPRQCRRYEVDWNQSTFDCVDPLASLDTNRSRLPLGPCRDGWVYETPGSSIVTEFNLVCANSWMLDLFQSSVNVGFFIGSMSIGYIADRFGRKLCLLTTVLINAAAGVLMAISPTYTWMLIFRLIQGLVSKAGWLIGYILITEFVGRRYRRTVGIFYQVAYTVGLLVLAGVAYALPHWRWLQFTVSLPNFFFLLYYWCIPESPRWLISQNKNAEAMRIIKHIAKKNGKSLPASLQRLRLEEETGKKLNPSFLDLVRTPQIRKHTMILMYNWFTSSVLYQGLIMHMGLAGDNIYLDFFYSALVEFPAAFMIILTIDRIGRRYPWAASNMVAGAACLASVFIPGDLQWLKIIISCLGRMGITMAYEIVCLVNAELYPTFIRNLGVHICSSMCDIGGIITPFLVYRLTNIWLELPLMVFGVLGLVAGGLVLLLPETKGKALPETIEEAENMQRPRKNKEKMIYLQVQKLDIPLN
Description: as §1, §2, §3, §4, §5, §6

[1] = HEK293, 5 min, read-out: (S,S)-Ethambutol inhibition [%], OCT3, 20 μM inhibitor, 2 μM (S,S)-ethambutol
[2] = OCT3, 20 μM inhibitor, 2 μM (S)-zolmitriptan
[3] = OCT3, 20 μM inhibitor, 2 μM ASP+
[4] = pH 7.4, probe (S,S)-ethambutol (2 μM), (S,S)-Ethambutol inhibition [%], 2 μM (S,S)-ethambutol
[5] = pH 7.4, probe ASP+ (2 μM), 2 μM ASP+, mean of three experiments, read-out: ASP+ inhibition [%]
[6] = HEK293, 5 min, read-out: (S)-Zolmitriptan inhibition [%], OCT3, 20 μM inhibitor, 2 μM (S)-zolmitriptan
[7] = HEK293, OCT3, 20 μM inhibitor, 2 μM ASP+, read-out: ASP+ inhibition [%]
[8] = pH 7.4, probe sumatriptan (2 μM), 2 μM sumatriptan, read-out: Sumatriptan inhibition [%]
[9] = pH 7.4, probe ASP+ (2 μM), ASP+ inhibition [%], 2 μM ASP+
[10] = pH 7.4, probe N-ethyllidocaine (2 μM), N-Ethyllidocaine inhibition [%], 2 μM N-ethyllidocaine

For `CC(C)(C)NC[C@H](O)c1ccc(O)c(CO)c1` [(R)-Salbutamol], the inhibition at 20 µM (OCT3; [1]) was 19.5%, the “(S)-Zolmitriptan inhibition [%]” value (OCT3; [2]) was -6.4% and the “ASP+ inhibition [%]” value (OCT3; [3]) was 10.3%. The “Sumatriptan inhibition [%]” value (OCT1; 2 μM sumatriptan) was -18.8%, the inhibition at 5 min, 20 μM (OCT1; [4]) was 12.2% and the inhibition at 5 min, 20 μM (OCT1; [5]) was 5.3%. For the same compound, the “(S,S)-Ethambutol inhibition [%]” value (OCT2; 2 μM (S,S)-ethambutol) was -0.3%, the “ASP+ inhibition [%]” value (OCT2; 2 μM ASP+) was 12.8% and the “N-Ethyllidocaine inhibition [%]” value (OCT2; 2 μM N-ethyllidocaine) was -15.0%.

Compound `COc1ccccc1OCCNC[C@H](O)COc1cccc2[nH]c3ccccc3c12` [(S)-Carvedilol] has an inhibition at 20 µM (OCT3; [6]) of 32.8%, an inhibition at 20 µM (OCT3; [1]) of 49.5% and an inhibition at 20 µM (OCT3; [7]) of 16.3%. The inhibition at 5 min, 20 μM (OCT1; [4]) was 100%, the inhibition at 5 min, 20 μM (OCT1; [5]) was 74.5% and the inhibition at 5 min, 20 μM (OCT1; [8]) was 96.5%. For the same compound, the inhibition at 5 min, 20 μM (OCT2; [4]) was 8.7%, the inhibition at 5 min, 20 μM (OCT2; [9]) was 94.9% and the inhibition at 5 min, 20 μM (OCT2; [10]) was 48.8%.

Compound `CC(C)Cc1ccc([C@@H](C)C(=O)O)cc1` [(R)-Ibuprofen] has an inhibition at 20 µM (OCT3; [6]) of -1.9%, an inhibition at 20 µM (OCT3; [1]) of 3.2% and an inhibition at 20 µM (OCT3; [7]) of 12.1%. The inhibition at 5 min, 20 μM (OCT1; [4]) was 5.6%, the inhibition at 5 min, 20 μM (OCT1; [5]) was 8.3% and the inhibition at 5 min, 20 μM (OCT1; [8]) was -7.2%. For the same compound, the inhibition at 5 min, 20 μM (OCT2; [4]) was 7%, the inhibition at 5 min, 20 μM (OCT2; [9]) was 11.5% and the inhibition at 5 min, 20 μM (OCT2; [10]) was 7.9%.

In the case of `C=C[C@H]1C[N@@]2CC[C@H]1C[C@@H]2[C@@H](O)c1ccnc2ccc(OC)cc12` [Quinidine], the inhibition at 20 µM (OCT3; [6]) is reported as 67%, the inhibition at 20 µM (OCT3; [1]) is reported as 85.9% and the inhibition at 20 µM (OCT3; [7]) is reported as 38.9%. It also gave an IC50 (OCT3; OCT3, Table S5, 2 μM ASP+ or ethambutol as model substrate, read-out: IC50) of 249 µM, an inhibition at 5 min, 20 μM (OCT1; [4]) of 61.7% and an inhibition at 5 min, 20 μM (OCT1; [5]) of 13.1%. For the same compound, the inhibition at 5 min, 20 μM (OCT1; [8]) was 41.3%, the inhibition at 5 min, 20 μM (OCT2; [4]) was 13.3% and the inhibition at 5 min, 20 μM (OCT2; [9]) was 93.4%. The inhibition at 5 min, 20 μM (OCT2; [10]) was 50.8%.

For `CC(C)(C)NC[C@@H](O)c1ccc(O)c(CO)c1` [(S)-Salbutamol], the “(S)-Zolmitriptan inhibition [%]” value (OCT3; [2]) was -3.4%, the “(S,S)-Ethambutol inhibition [%]” value (OCT3; OCT3, 20 μM inhibitor, 2 μM (S,S)-ethambutol) was 14.5% and the “ASP+ inhibition [%]” value (OCT3; [3]) was 1.3%. For the same compound, the “(S,S)-Ethambutol inhibition [%]” value (OCT1; 2 μM (S,S)-ethambutol) was 9.3%, the “ASP+ inhibition [%]” value (OCT1; 2 μM ASP+, mean of three experiments) was 6.1% and the “Sumatriptan inhibition [%]” value (OCT1; 2 μM sumatriptan) was -10.2%. The “(S,S)-Ethambutol inhibition [%]” value (OCT2; 2 μM (S,S)-ethambutol) was 3.0%, the “ASP+ inhibition [%]” value (OCT2; 2 μM ASP+) was -2.8% and the “N-Ethyllidocaine inhibition [%]” value (OCT2; 2 μM N-ethyllidocaine) was -17.4%.
